pIC50: −log10 of the molar value.
What was measured:
ABCG2 [1] = target: T1, ABCG2 (Homo sapiens, UniProt Q9UNQ0); assay: Accumulation assay with mitoxantrone in MDCKII-ABCG2 cells; type: cell-based; conditions: normalized to Ko143, read-out: ABCG2 inhibition IC50
T1 construct: expressed in transfected cells; host or cells: MDCKII (canine kidney) subline MDCKII-ABCG2, gift of Dr. Alfred Schinkel
Description: (§1) The conduction of accumulation assays followed the slightly changed protocol described previously. In the study, MDCKII-par, MDCKII-ABCB1, MDCKII-ABCC1, MDCKII-ABCG2, and primary explants were seeded into 12-well plates in variant densities, 22.0 × 10^4, 15.0 × 10^4, 25.0 × 10^4, 22.0 × 10^4, and 15.0 × 10^4 cells/well, respectively. After 24 h incubation, two washing steps with 1 × PBS were applied. […] The cells were then incubated under standard conditions for 30 min. Next steps included placing the plates on ice, washing the cells with ice-cold 1 × PBS two-times, and detaching the cells with the ice-cold 10 × trypsin without phenol red. Following trypsinization, cells were resuspended in 1 × PBS containing 2% FBS. Subsequently, cell suspensions were transferred into the test tubes and kept on ice. The fluorescence in cells was measured immediately after the collection of their suspensions using flow cytometer Sony SA3800 Spectral Cell Analyzer (Sony Biotechnology, San Jose, CA, USA). SA3800 software (Sony Biotechnology, San Jose, CA, USA) was used to evaluate the data.

[2] = test system: patient-derived NSCLC explants; assay: Accumulation of mitoxantrone and daunorubicin in ex vivo explants; type: cell-based, human; conditions: 5 µM talazoparib, 2 µM Ko143, 25 µM MK571
Excerpt: NSCLC specimens from lung lobectomies were donated by patients at the Department of Cardiac Surgery, University Hospital Hradec Kralove. All the patients signed the informed consent; its formulation was approved by the University Hospital Ethics Committee (study no. 202002 […]). The NSCLC malignant tissues were excised from lung lobes by the pathologist immediately after the surgery. Then, NSCLC primary explants were generated according to the established protocols. First, the tumor tissues were cut into small pieces by scalpel. Then, the cells were released from the tissue by the 0.1% collagenase in 1 × MEM at 37 °C for 30 min. Subsequently, 1% BSA in MEM (v/v) was added, and cells were filtered through a 40 μm pore-sized cell strainer. The resulting solution was centrifuged at 200 × g for 5 min and the pellet was resuspended in 1% BSA in MEM. The centrifugation (100 × g for 10 min) in Ficoll Paque Plus was used for removing biological impurities such as cell debris, etc. Next, the NSCLC cells were collected and transferred into c-based media. The additional centrifugation (200 × g for 5 min) was applied to remove the traces of Ficoll solution. […] The fluorescence in cells was measured immediately after the collection of their suspensions using flow cytometer Sony SA3800 Spectral Cell Analyzer (Sony Biotechnology, San Jose, CA, USA). […]

ABCB1 mRNA = assay: Gene induction study (qRT-PCR) in MCF-7 cells; type: cell-based, Human; conditions: 0.5 µM, 24 and 48 h
Description: (§2) Gene expression analyses based on quantitative real-time reverse transcription PCR (qRT-PCR) were performed as described previously. MCF-7 cell line (3.8×10^5 cells/well) was seeded in 12-well plates 24 h before induction experiments. […] After 24 and 48 h intervals, samples were collected by using TRI Reagent. Subsequently, total RNA was isolated from the cells using the chloroform/isopropanol method. Reverse transcription of 1 μg RNA to cDNA was conducted with ProtoScript II Reverse Transcriptase using T100 Thermal Cycler (Bio-Rad Laboratories, Hercules, CA, USA) according to the two-step protocol described previously. The expressions of ABCB1, ABCC1, and ABCG2 genes were measured by qRT-PCR using specific TaqMan assays with QuantStudio 6 machine (Life Technologies, Carlsbad, CA, USA). qRT-PCR reactions were run under predefined thermal cycling conditions (95 °C for 10 min, then 40 repeats of a cycle of 95 °C for 15 s and 60 °C for 60 s). GAPDH and B2M were used as house-keeping genes; the fold-changes in target genes’ expressions were determined according to the 2^-ΔΔCt method.

ABCC1 mRNA = assay: Gene induction study (qRT-PCR) in MCF-7 cells; type: cell-based, Human; conditions: 0.5 µM, 24 and 48 h
Description: as §2

ABCG2 mRNA = assay: Gene induction study (qRT-PCR) in MCF-7 cells; type: cell-based, Human; conditions: 0.5 µM, 24 and 48 h
Description: as §2

[3] = in-human mass-balance study; cited from earlier work
ABCC1 = ABCC1 (Homo sapiens, UniProt P33527); conditions: 12-days exposure; MCF-10A; cited from earlier work
ABCG2 [4] = conditions: 12-days exposure; MCF-10A; cited from earlier work
ABCB1 = ABCB1 (Homo sapiens, UniProt P08183); assay: Accumulation assay with daunorubicin in MDCKII-ABCB1 cells; type: cell-based; parameters: expressed in transfected cells; host or cells: MDCKII (canine kidney) subline MDCKII-ABCB1, gift of Dr. Alfred Schinkel; conditions: read-out: ABCB1 inhibition IC50
Description: as §1

Sequence of ABCC1 (P33527 whole entry): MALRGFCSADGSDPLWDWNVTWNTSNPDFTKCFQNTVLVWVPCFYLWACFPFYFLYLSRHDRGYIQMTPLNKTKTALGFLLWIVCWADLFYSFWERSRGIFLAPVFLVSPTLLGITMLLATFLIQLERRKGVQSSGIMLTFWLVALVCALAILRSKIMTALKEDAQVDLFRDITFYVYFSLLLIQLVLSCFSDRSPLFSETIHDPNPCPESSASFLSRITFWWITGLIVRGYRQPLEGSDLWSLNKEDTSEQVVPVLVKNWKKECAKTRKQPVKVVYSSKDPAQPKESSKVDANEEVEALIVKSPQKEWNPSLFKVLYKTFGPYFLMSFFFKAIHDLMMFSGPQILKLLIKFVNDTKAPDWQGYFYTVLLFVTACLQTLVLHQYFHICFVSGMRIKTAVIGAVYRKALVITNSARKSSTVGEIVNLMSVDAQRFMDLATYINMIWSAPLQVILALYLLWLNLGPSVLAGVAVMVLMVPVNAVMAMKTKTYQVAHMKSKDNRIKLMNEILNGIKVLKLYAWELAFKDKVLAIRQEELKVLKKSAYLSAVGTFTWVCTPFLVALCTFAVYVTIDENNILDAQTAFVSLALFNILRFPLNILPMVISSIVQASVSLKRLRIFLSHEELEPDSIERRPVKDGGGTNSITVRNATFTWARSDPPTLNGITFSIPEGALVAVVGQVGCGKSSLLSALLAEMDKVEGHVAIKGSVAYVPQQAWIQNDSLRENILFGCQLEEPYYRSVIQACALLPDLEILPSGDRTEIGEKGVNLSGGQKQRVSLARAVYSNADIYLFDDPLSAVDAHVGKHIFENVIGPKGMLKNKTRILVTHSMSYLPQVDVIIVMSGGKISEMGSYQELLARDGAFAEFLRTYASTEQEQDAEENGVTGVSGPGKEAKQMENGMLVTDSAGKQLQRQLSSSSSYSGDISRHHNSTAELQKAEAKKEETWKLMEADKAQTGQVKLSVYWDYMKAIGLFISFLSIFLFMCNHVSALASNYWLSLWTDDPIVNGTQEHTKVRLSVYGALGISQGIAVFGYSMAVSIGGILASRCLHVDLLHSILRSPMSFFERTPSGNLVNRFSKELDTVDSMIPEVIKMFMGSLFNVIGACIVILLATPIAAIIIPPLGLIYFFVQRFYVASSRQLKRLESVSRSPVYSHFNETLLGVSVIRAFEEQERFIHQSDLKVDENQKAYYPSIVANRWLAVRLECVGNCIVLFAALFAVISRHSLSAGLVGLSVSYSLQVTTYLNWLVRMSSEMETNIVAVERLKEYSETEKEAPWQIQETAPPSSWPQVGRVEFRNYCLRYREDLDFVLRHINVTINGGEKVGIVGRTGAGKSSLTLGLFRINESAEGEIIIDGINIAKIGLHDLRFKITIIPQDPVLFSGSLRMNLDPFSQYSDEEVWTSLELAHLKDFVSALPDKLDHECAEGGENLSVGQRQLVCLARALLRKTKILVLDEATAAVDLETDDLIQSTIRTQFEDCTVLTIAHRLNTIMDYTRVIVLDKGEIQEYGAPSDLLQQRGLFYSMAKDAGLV
Sequence of ABCB1 (P08183 whole entry): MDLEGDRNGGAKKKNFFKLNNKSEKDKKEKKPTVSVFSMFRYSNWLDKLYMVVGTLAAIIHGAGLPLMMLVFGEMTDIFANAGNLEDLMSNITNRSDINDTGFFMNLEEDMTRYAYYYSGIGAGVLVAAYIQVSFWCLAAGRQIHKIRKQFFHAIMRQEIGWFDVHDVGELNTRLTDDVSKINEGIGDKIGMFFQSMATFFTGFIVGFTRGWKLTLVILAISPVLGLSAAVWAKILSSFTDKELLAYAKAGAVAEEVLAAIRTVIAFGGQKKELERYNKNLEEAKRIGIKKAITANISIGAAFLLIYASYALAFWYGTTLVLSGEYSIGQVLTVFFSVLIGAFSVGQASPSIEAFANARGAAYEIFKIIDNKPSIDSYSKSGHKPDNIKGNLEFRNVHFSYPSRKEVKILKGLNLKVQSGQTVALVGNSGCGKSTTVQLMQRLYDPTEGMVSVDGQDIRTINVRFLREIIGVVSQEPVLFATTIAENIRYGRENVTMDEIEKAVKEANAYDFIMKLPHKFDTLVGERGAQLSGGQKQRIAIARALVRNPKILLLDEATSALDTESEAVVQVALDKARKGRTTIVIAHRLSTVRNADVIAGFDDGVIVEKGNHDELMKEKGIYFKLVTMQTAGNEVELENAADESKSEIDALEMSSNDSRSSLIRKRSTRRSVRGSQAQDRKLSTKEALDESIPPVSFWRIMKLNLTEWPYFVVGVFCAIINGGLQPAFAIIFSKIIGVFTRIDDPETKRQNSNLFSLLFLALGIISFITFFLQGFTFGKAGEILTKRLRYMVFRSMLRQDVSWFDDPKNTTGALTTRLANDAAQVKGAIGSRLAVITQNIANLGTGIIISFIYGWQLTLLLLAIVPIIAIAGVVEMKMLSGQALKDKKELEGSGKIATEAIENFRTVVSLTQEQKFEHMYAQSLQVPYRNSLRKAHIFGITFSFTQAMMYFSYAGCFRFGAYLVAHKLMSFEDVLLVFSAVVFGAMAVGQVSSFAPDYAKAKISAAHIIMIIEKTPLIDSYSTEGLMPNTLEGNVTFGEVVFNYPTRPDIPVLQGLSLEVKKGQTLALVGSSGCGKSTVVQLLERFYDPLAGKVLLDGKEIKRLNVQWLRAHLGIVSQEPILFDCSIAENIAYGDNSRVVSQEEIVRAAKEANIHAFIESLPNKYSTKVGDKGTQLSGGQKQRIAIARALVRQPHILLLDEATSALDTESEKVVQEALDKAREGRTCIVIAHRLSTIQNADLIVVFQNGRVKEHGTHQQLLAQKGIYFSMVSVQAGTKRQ
T1 sequence (Q9UNQ0 whole entry): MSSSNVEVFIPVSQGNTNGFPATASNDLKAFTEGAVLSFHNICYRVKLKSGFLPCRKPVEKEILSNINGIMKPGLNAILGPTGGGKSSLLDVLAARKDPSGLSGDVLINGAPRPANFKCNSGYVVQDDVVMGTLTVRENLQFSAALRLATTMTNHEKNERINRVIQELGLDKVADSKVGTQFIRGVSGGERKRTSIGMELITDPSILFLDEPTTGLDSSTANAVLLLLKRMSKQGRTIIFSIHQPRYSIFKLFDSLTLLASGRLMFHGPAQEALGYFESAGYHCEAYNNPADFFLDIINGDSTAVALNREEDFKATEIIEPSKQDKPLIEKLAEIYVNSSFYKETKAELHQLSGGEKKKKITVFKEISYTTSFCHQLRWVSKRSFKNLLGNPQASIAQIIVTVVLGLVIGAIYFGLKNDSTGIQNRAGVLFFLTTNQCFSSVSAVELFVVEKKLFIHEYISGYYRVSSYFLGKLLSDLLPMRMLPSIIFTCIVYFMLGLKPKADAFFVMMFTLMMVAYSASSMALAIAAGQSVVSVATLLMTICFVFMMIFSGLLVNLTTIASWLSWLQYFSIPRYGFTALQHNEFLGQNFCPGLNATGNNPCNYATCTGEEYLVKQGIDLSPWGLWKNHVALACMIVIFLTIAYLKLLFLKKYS

pIC50 (ABCB1): < 4.30
Structure (SMILES): Cn1ncnc1[C@H]1c2n[nH]c(=O)c3cc(F)cc(c23)N[C@@H]1c1ccc(F)cc1 [talazoparib, Talazoparib]
pIC50 (ABCG2 [1]): 4.95
effect on cytostatic efflux / accumulation ([2]; primary cultures with high expression of ABCG2/ABCC1): significantly inhibited cytostatic efflux
effect on cytostatic efflux / accumulation ([2]; primary cultures with low expression of ABCG2/ABCC1): insignificant accumulation changes
change of ABCB1 mRNA expression vs vehicle control (ABCB1 mRNA): did not trigger the transporters’ expression increase or decrease by more than 100% or 50%
change of ABCC1 mRNA expression vs vehicle control (ABCC1 mRNA): did not trigger the transporters’ expression increase or decrease by more than 100% or 50%
change of ABCG2 mRNA expression vs vehicle control (ABCG2 mRNA): did not trigger the transporters’ expression increase or decrease by more than 100% or 50%
excretion [3]: a major fraction of the dose is excreted renally and biliary in unchanged form
extent of metabolism [3]: minimally metabolized
effect on ABCC1 mRNA (ABCC1): upregulate
effect on ABCC1 protein level (ABCC1): unchanged
effect on ABCG2 mRNA (ABCG2 [4]): upregulate
effect on ABCG2 protein level (ABCG2 [4]): decreased

— PMC9697930 (International Journal of Molecular Sciences, 2022)
